Experiments:
Mus musculus [1] = experiment: Acute toxicity in Swiss-Webster mouse at 1 g/kg, po; type: organism-based; settings: in vivo, 1000 mg/kg
Mus musculus [2] = experiment: Acute toxicity in Swiss-Webster mouse at 2 g/kg, po; type: organism-based; settings: in vivo, 2000 mg/kg

SMILES: Oc1ccc([C@H]2Oc3c(c(O)cc4c3[C@H]3c5c(O)cc(O)cc5O[C@@](c5ccc(O)cc5)(O4)[C@@H]3O)[C@H](c3c(O)cc(O)c4c3O[C@H](c3ccc(O)cc3)[C@@H](O)C4)[C@H]2O)cc1 [SELLIGUEAIN A]
- Activity (Mus musculus [1]): Non-toxic
- Activity (Mus musculus [2]): Non-toxic

From ChEMBL document CHEMBL1147370, “Selligueain A, a novel highly sweet proanthocyanidin from the rhizomes of Selliguea feei” (J Nat Prod, 1993)
